According to article PMC11062922 (Nature Chemical Biology, 2023):

How the values were obtained:
[1] = tested on: phosphorylation sites in RKO cells; test: Drug-perturbed phosphoproteome analysis in RKO cells; format: cell-based, human; conditions: RKO cells, 1 µM for 1 hour
Description: To be able to measure PKN3 activity in cells, bona fide substrates of the kinase would be needed but no such substrate has been conclusively validated yet. In search for such candidates, we compared the phosphoproteomes of RKO cells (human colorectal cancer cells expressing high PKN3 levels according to ProteomicsDB[53]) in response to the same three compounds (that only share PKN3 as a target), as well as THZ1 (a covalent inhibitor for which PKN3 is a reported off-target[51]) and in response to siRNA-mediated knockdown of PKN3 (Extended Data Fig. 9a,b). […] The respective numbers were far smaller for GSK949675A, GSK902056A (all four drugs used at 1 µM for 1 hour) or the siRNA experiment (48 h of knockdown; Fig. 5d, Extended Data Fig. 9d and Supplementary Table 5). Successful PKN3 knockdown (89 and 92% for 1 and 3 nM siRNA, respectively) was confirmed by parallel reaction monitoring (a quantitative mass spectrometry-based protein expression assay; Extended Data Fig. 10a).
For global phosphoproteomic analysis of PKN3 inhibitors, RKO cells were treated with 1 µM GSK949675A, THZ1, GSK902056A, SB-476429A or DMSO for 1 h in four biological replicates or PKN3 were knocked down as described. After treatment, cells were washed twice with PBS and lyzed by adding 300 µl of lysis buffer (40 mM Tris-HCl pH 7.6, 8 M Urea, EDTA-free protease inhibitor complete mini and phosphatase inhibitor cocktail). Lysates were sonicated (ten cycles, 30 s on, 30 s pause, at 4 °C) and subsequently cleared by centrifugation for 20 min at 21,000g at 4 °C. Protein concentration was determined by Bradford assay and 300 µg protein per condition was digested. After reduction with 10 mM DTT and alkylation of cysteine residues with 50 mM chloroacetamide, the Urea concentration was reduced to 1.5 M by adding […] of 40 mM Tris/HCl pH 7.6. Trypsin was added to a protease-to-protein ratio of 1:50 and digestion was performed over night at 37 °C and 700 r.p.m. on a thermoshaker. Samples were cooled down to room temperature and acidified to a pH < 3 with 0.5% trifluoroacetic acid (TFA) and desalted using 50 mg SepPak columns (Waters; wash solvent 0.07% TFA in deionized water; elution solvent 0.07% TFA, 50% ACN). Subsequently, samples were frozen at −80 °C and dried by vacuum centrifugation. Peptide concentrations were determined by NanoDrop 2000 spectrophotometer and peptide amounts were adjusted. Dried peptides were labeled with TMT6plex as published previously. […] Phosphopeptides were enriched using column based Fe-IMAC as described previously. Subsequently, phosphopeptides were separated into six fractions using high pH reversed-phase stage tips as described before. Samples were dried by vacuum centrifugation.
Nanoflow LC–MS/MS measurement of TMT-labeled phosphopeptides was performed using a Dionex Ultimate3000 nano HPLC coupled online to an Orbitrap Fusion Lumos Tribride (Thermo Fisher Scientific) mass spectrometer. Peptides were delivered to a trap column (75 μm × 2 cm, packed in house with 5 μm C18 resin; Reprosil-Pur AQ, Dr. Maisch) and washed for 10 min with 0.1% FA at a flow rate of 5 μl min^−1. […] MS1 spectra were recorded in the Orbitrap from 360 to 1,300 m/z at a resolution of 60,000 using an AGC target value of 4 × 10^5 charges and a maximum injection time of 20 ms. MS2 spectra were recorded in the Orbitrap at 15,000 resolution after HCD fragmentation using 35% NCE, an AGC target value of 5 × 10^4, maximum injection time of 22 ms and an isolation width of 0.7 m/z. The first mass was fixed to 100 m/z. The number of MS2 spectra was limited by a top ten method. For TMT quantification, an additional MS3 spectrum was acquired in the Orbitrap over a scan range of 100–1,000 m/z at 15,000 resolution (AGC of 1 × 10^5, maximum injection time of 50 ms). For this, fragment ions were selected by multi-notch isolation in the Quadrupole, allowing a maximum of ten notches and subsequently fragmentation by HCD at 55% NCE. Dynamic exclusion was set to 90 s. […]

CSK = molecular target: T1, CSK (Homo sapiens, UniProt P41240); test: Kinobeads competition binding: CSK; conditions: target CSK
T1 construct: endogenous in cells
T1 sequence (P41240 whole entry): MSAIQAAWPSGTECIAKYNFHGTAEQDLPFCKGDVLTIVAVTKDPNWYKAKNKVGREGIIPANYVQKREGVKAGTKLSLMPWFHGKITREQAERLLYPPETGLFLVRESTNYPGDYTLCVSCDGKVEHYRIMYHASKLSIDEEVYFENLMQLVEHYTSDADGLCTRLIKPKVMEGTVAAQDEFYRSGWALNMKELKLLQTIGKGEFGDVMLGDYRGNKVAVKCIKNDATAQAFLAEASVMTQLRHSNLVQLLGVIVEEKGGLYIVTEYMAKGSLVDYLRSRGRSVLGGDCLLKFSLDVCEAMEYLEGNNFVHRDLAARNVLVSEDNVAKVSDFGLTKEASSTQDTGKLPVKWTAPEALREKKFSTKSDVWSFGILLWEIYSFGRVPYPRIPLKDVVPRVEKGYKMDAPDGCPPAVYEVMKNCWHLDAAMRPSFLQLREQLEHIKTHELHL

CDK4 = molecular target: T2, CDK4 (Homo sapiens, UniProt P11802); test: Kinobeads competition binding: CDK4; conditions: target CDK4
T2 construct: endogenous in cells
T2 sequence (P11802 whole entry): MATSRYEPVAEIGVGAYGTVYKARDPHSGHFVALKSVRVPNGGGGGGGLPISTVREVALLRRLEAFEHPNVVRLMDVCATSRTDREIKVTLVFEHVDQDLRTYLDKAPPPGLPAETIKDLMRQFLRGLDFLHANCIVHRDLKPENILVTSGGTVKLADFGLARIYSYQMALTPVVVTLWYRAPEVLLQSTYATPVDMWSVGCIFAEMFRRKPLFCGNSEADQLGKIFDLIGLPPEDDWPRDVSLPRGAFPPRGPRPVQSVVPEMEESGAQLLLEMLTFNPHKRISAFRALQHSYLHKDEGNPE
Description: Supplement 41589_2023_1459_MOESM4_ESM.xlsx, sheet "CATDS matrix" | column: CDK4

FECH = test: Kinobeads competition binding: FECH; parameters: species or system human; conditions: target FECH

Structure (SMILES): NCc1ccc(-c2nc(-c3ccncc3)c(-c3ccc(Cl)c(O)c3)[nH]2)cc1 [SB-476429-A]
- PKN3 activation loop p sites (S544 and T550) [1]: substantial reduction
- number of perturbed phosphorylation sites [1]: a large number of p sites

Structure (SMILES): Nc1ncnc2[nH]c(-c3ccccc3)nc12 [AH5015_KCGS]
- CATDS (CSK): 0
- CATDS (CDK4): 0
- CATDS (FECH): 0

Structure (SMILES): CCc1cc2c(cc1N1CCC(N3CCOCC3)CC1)C(C)(C)c1[nH]c3cc(C#N)ccc3c1C2=O [Alectinib]
- CATDS (CSK): 0
- CATDS (CDK4): 0
- CATDS (FECH): 0

Structure (SMILES): CCN1CCN(Cc2ccc(Nc3ncc(F)c(-c4cc(F)c5nc(C)n(C(C)C)c5c4)n3)nc2)CC1 [Abemaciclib]
- CATDS (CSK): 0
- CATDS (CDK4): 0
- CATDS (FECH): 0

Structure (SMILES): CN(C)C/C=C/C(=O)Nc1cc2c(Nc3ccc(F)c(Cl)c3)ncnc2cc1O[C@H]1CCOC1 [Afatinib]
- CATDS (CDK4): 0
- CATDS (FECH): 0

Structure (SMILES): CCn1c(-c2nonc2N)nc2c(C#CC(C)(C)O)nc(OCCN)cc21 [GSK902056A]
- number of perturbed phosphorylation sites [1]: far smaller

Structure (SMILES): N#CC1(c2ccc(NC(=O)c3cccnc3NCc3ccncc3)cc2)CCCC1 [Apatinib]
- CATDS (CSK): 0
- CATDS (CDK4): 0
- CATDS (FECH): 0

Structure (SMILES): CCn1c(-c2nonc2N)nc2c(C#CC(C)(C)O)nc(OCCNC)cc21 [GSK949675A]
- number of perturbed phosphorylation sites [1]: far smaller
